Results published in patent US20180071317A1, “USE OF AGENTS THAT ALTER THE PERITUMORAL ENVIRONMENT FOR THE TREATMENT OF CANCER” (SERVICIO ANDALUZ DE SALUD, priority 2011, published 2018).

How the values were obtained:
[1] = test system: fibroblasts (PHF) co-cultured with tumor cells of human colon adenocarcinoma (SW-403); test: Marker expression (IHC) in PHF co-cultured with SW-403 tumor cells; type: cell-based; details: co-culture with SW-403; SP 1 μM + antagonist 1 μM; 48 h
Method: All cultures were maintained 48 hours, following which the same cells were included in paraffin blocks for subsequent analysis of the expression of different markers by immunohistochemistry (see Example 1). The primary antibodies used to perform immunohistochemical assays and their concentration are detailed in Example 2. All experiments were carried out sixfold. Analyzed markers in fibroblast cells (stromal cells) were: TGF-α, TGF-β1, TGF-β2, TGF-β3, SPARC, MMP-3, MMP-7, MMP-9, MMP-11, MMP-13 and MMP-14.

[2] = test system: fibroblasts (PHF) co-cultured with tumor cells of human breast carcinoma (MCF-7); test: Marker expression (IHC) in PHF co-cultured with MCF-7 tumor cells; type: cell-based; details: co-culture with MCF-7; SP 1 μM + antagonist 1 μM; 48 h;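 note: value is the percentage of fibroblasts positive for each marker, with fibroblasts cultured alone as reference, grown in fresh plasma from a healthy donor, six replicates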
Method: (§4) All cultures were maintained 48 hours, following which the same cells were included in paraffin blocks for subsequent analysis of the expression of different markers by immunohistochemistry (see Example 1). […] All experiments were carried out sixfold. Analyzed markers in fibroblast cells (stromal cells) were: TGF-α, TGF-β1, TGF-β2, TGF-β3, SPARC, MMP-3, MMP-7, MMP-9, MMP-11, MMP-13 and MMP-14.

[3] = test system: fibroblasts (PHF) co-cultured with tumor cells of human cervix carcinoma (KB); test: Marker expression (IHC) in PHF co-cultured with KB tumor cells; type: cell-based; details: co-culture with KB; SP 1 μM + antagonist 1 μM; 48 h;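 note: percentage of PHF fibroblasts showing expression of each marker, cultured in fresh blood plasma from a healthy human donor, six replicates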
Method: as §4

[4] = test system: fibroblasts (PHF) co-cultured with tumor cells in human prostate carcinoma (22Rv1); test: Marker expression (IHC) in PHF co-cultured with 22Rv1 tumor cells; type: cell-based; details: co-culture with 22Rv1; SP 1 μM + antagonist 1 μM; 48 h;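 note: cultures grown on fresh plasma from a healthy donor, each experiment run sixfold, values give the percentage of fibroblasts positive for the given marker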
Method: as §4

[5] = test system: fibroblasts (PHF) co-cultured with human glioma tumor cells (GAMG); test: Marker expression (IHC) in PHF co-cultured with GAMG tumor cells; type: cell-based; details: co-culture with GAMG; SP 1 μM + antagonist 1 μM; 48 h;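 note: percentage of PHF fibroblasts positive for each marker, cultured in fresh plasma from a healthy donor, six replicates, with fibroblasts cultured alone as reference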
Method: as §4

[6] = test system: fibroblasts (PHF) co-cultured with human neuroblastoma tumor cells (KELLY); test: Marker expression (IHC) in PHF co-cultured with KELLY tumor cells; type: cell-based; details: PHF co-cultured with KELLY + SP + NK1 antagonist;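 note: Co-cultures grown on healthy-donor human blood plasma, run in six replicates, value is percentage of fibroblasts positive for each marker, compared with fibroblasts cultured alone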
Method: as §4

[7] = test system: fibroblasts of tumors produced by human glioma tumor line (GAMG); test: Marker expression (IHC) in fibroblasts of tumor or peritumoral area, mouse model, GAMG; type: in vivo; details: GAMG tumors in mice, 30 mg/kg/day oral, 7 days
Method: (§1) In vitro tests conducted in Example 5 are now carried out in an experimental model in mice in vivo. […] Subsequently, the expression in fibroblasts tumoral and peritumoral area of molecular markers associated with progression and maintenance of tumors: TGF-α, TGF-β1, TGF-β2, TGF-β3, MMP-7, MMP-11, MMP-14 were analyzed by immunohistochemistry.
(§2) Were injected with 2×10^7 cells tumors (corresponding, in each case to each of the tumor types as specified in Table 9) in 200 of PBS subcutaneously μl. […] Mice were randomized into two groups when the tumors reached a volume of 75 mm^3 One group was treated with non-peptide receptor antagonists NK1 and the other with placebo 200μ1. […] Tumors and samples of non-neoplastic stromal areas remote from the tumor were halved, formalin fixed (4%) and then were included in paraffin blocks for analysis by immunohistochemistry.
(§3) The expression on fibroblast cells obtained in the animal model was analyzed by immunohistochemistry, of the above markers: TGF-α, TGF-β1, TGF-β2, TGF-β3, MMP-7, MMP-1 1, MMP-14MP-14. Tables 32 to 35 depict the type of label used and the average percentage of fibroblasts present in non-tumor areas, tumor and peritumoral (±SD) which were expressing the marker shown in each of the tumor types developed from of the different cell lines used. This process was realized in mice treated with non-peptide antagonists of NK1 receptor and in untreated animals (control).

[8] = test system: fibroblasts of tumors produced by human rhabdomyosarcoma tumor line (A-204); test: Marker expression (IHC) in fibroblasts of tumor or peritumoral area, mouse model, A-204; type: in vivo; details: A-204 tumors in mice, 30 mg/kg/day oral, 7 days
Method: as §1, §2, §3

[9] = test system: macrophages in co-culture with cells isolated from primary human tumors; test: Marker expression (IHC) in macrophages co-cultured with primary human tumor cells (colon, breast, ovarian, lung carcinoma, melanoma); type: cell-based; details: SP 1 μM + antagonist 1 μM;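 note: macrophages came from pleural or peritoneal washings of the patient who also supplied the tumor cells, and both were co-cultured on fresh blood plasma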
Method: To check that the interaction of tumor cells obtained directly from primary human immune cell/inflammatory (macrophages) cells, obtained from the patient stimulate secretion of substances by these macrophages recognized as important in survival of both cell types and in the progression of tumor cells, co-cultures were performed on fresh blood plasma, immune cell/inflammatory (macrophages) with tumor cells derived from primary tumors. All obtained from the same patient, to build an experimental model similar to human physiology.
Macrophages were obtained from washing or pleural or peritoneal from the same patient from which the primary tumor cells were obtained in each case.

[10] = co-culture with cells isolated from breast carcinoma
[11] = co-culture with cells isolated from colon carcinoma
[12] = co-culture with cells isolated from lung carcinoma
[13] = co-culture with cells isolated from melanoma
[14] = co-culture with cells isolated from ovarian carcinoma

Cc1cc(F)ccc1[C@H]1CNCCN1C(=O)N(C)[C@H](C)c1cc(C(F)(F)F)cc(C(F)(F)F)c1 [Vestipitant]
0%: PHF cells expressing MMP-3 [1] | PHF cells expressing MMP-7 [1] | PHF cells expressing MMP-9 [1] | PHF cells expressing MMP-11 [1] | PHF cells expressing MMP-13 [1] | PHF cells expressing MMP-14 [1] | PHF cells expressing SPARC [1] | PHF cells expressing TGF-α [1] | PHF cells expressing TGF-β1 [1] | PHF cells expressing TGF-β2 [1] | PHF cells expressing TGF-β3 [1] | PHF cells expressing MMP-3 [2] | PHF cells expressing MMP-7 [2] | PHF cells expressing MMP-9 [2] | PHF cells expressing MMP-11 [2] | PHF cells expressing MMP-13 [2] | PHF cells expressing MMP-14 [2] | PHF cells expressing SPARC [2] | PHF cells expressing TGF-α [2] | PHF cells expressing TGF-β1 [2] | PHF cells expressing TGF-β2 [2] | PHF cells expressing TGF-β3 [2] | PHF cells expressing MMP-3 [3] | PHF cells expressing MMP-7 [3] | PHF cells expressing MMP-9 [3] | PHF cells expressing MMP-11 [3] | PHF cells expressing MMP-13 [3] | PHF cells expressing MMP-14 [3] | PHF cells expressing SPARC [3] | PHF cells expressing TGF-α [3] | PHF cells expressing TGF-β1 [3] | PHF cells expressing TGF-β2 [3] | PHF cells expressing TGF-β3 [3] | PHF cells expressing MMP-3 [4] | PHF cells expressing MMP-7 [4] | PHF cells expressing MMP-9 [4] | PHF cells expressing MMP-11 [4] | PHF cells expressing MMP-13 [4] | PHF cells expressing MMP-14 [4] | PHF cells expressing SPARC [4] | PHF cells expressing TGF-α [4] | PHF cells expressing TGF-β1 [4] | PHF cells expressing TGF-β2 [4] | PHF cells expressing TGF-β3 [4] | PHF cells expressing MMP-3 [5] | PHF cells expressing MMP-7 [5] | PHF cells expressing MMP-9 [5] | PHF cells expressing MMP-11 [5] | PHF cells expressing MMP-13 [5] | PHF cells expressing MMP-14 [5] | PHF cells expressing SPARC [5] | PHF cells expressing TGF-α [5] | PHF cells expressing TGF-β1 [5] | PHF cells expressing TGF-β2 [5] | PHF cells expressing TGF-β3 [5] | cells expressing MMP-3 [6] | cells expressing MMP-7 [6] | cells expressing MMP-9 [6] | cells expressing MMP-11 [6] | cells expressing MMP-13 [6] | cells expressing MMP-14 [6] | cells expressing SPARC [6] | cells expressing TGF-α [6] | cells expressing TGF-β1 [6] | cells expressing TGF-β2 [6] | cells expressing TGF-β3 [6] | fibroblasts expressing MMP-7 [7] | fibroblasts expressing MMP-11 [7] | fibroblasts expressing MMP-14 [7] | fibroblasts expressing TGF-α [7] | fibroblasts expressing TGF-β 1 [7] | fibroblasts expressing TGF-β 2 [7] | fibroblasts expressing TGF-β 3 [7] | fibroblasts expressing MMP-7 [8] | fibroblasts expressing MMP-11 [8] | fibroblasts expressing MMP-14 [8] | fibroblasts expressing TGF-α [8] | fibroblasts expressing TGF-β 1 [8] | fibroblasts expressing TGF-β 2 [8] | fibroblasts expressing TGF-β 3 [8] | Percentage of macrophages which expressed EGF [9, 10] | Percentage of macrophages which expressed MMP-9 [9, 10] | Percentage of macrophages which expressed VEGF [9, 10] | Percentage of macrophages which expressed EGF [9, 11] | Percentage of macrophages which expressed MMP-9 [9, 11] | Percentage of macrophages which expressed VEGF [9, 11] | Percentage of macrophages which expressed EGF [9, 12] | Percentage of macrophages which expressed MMP-9 [9, 12] | Percentage of macrophages which expressed VEGF [9, 12] | Percentage of macrophages which expressed EGF [9, 13] | Percentage of macrophages which expressed MMP-9 [9, 13] | Percentage of macrophages which expressed VEGF [9, 13] | Percentage of macrophages which expressed EGF [9, 14] | Percentage of macrophages which expressed MMP-9 [9, 14] | Percentage of macrophages which expressed VEGF [9, 14]
